Biological target: full-length recombinant human FYN A (Homo sapiens (Human), UniProt P06241)
Test: ADP-Glo Kinase Assay, FYN kinase inhibition (primary and secondary screen)
Format: biochemical
Details: primary screen, initial compounds
Description: The chemical library was comprised of the SoftFocus ATP-competitive hinge binding compounds described by Harris, C. J., Hill, R. D., Sheppard, D. W., et al., The Design and Application of Target-Focused Compound Libraries. Combinatorial Chemistry and High Throughput Screening 14:521-31 (2011). The specific pharmacore chemistries included SFK52 comprising 6-[R2]-3-[R1]imidazo[1,2-b] pyridazine compounds, SFK33 comprising N-(3-[R2] imidazo [1,2-b] pyridazin-6-yl) [R1] amine compounds, SFK49 comprising N-(5-[R2] imidazo [2,1-b][1,3,4] thiadiazol-2-yl)[R1]-amine compounds, SFK 40 comprising 5-[R2]-3-[R1] pyridin-2-amine compounds, SFK43 comprising 6-[R2]-3-[R1]imidazo[1,2-a] pyrazine compounds, and SFK63. The chemical structures of the initial 600 potential kinase inhibitors are presented in Table 3, with those chosen for additional analysis presented in Table 4. Comparison of the compounds presented in Table 1 and those of Tables 2, 3 and 4, illustrate the novelty of the chemical structures claimed herein.
FYN kinase (10 micrograms) was from the FYN A Kinase Enzyme System (V3571, Promega UK Ltd.), a full-length recombinant human FYN A containing an N-terminal GST tag of about 85 kDa, expressed by bacullovirus in […] insect cells, supplied at a concentration of 0.1 microgram/microliter in 5× reaction buffer. The FYN substrate, a 12 amino acid peptide of the sequence […], containing a single tyrosine phosphorylation site, was custom synthesized (Peptide Synthetics, Peptide Protein Research, Fareham, UK) and supplied as a 4 mg/ml aqueous solution. All other reagents were obtained from Sigma (Sigma-Aldrich, Gillingham, Dorset, UK), with the exception of UltraPure ATP (V9102, Promega UK Ltd.) and the ATP-competitive broad spectrum protein kinase inhibitor staurosporine (569397, Merck Millipore, Watford, Hertfordshire, UK), or as otherwise indicated.
The assay procedure determines the IC50 of each potential FYN kinase inhibitor by measuring the enzyme catalyzed ATP-dependent phosphorylation of the FYN substrate peptide. The ADP-Glo™ Kinase Assay is specifically designed to quantify kinase activity by measuring the ADP produced in the reaction The reaction buffer comprises 40 mM Tris·HCl (pH 7.5), 20 mM MgCl2, 0.1 mg/ml BSA and 5 microM DTT. Individual compounds within the chemical library were dissolved in DMSO at known concentrations. Briefly, 2.5 microliters of reaction buffer containing 3 picograms of FYN kinase and serial dilutions of each potential FYN kinase inhibitor (9 3-fold dilutions of a 10 micromolar top sample) are placed into each well of a 384 well microtiter plate and incubated at room temperature for 30 minutes. An additional 2.5 microliters of reaction buffer containing 100 picograms of the FYN substrate and 12.5 picomoles of ATP are then added to each well and the reaction carried out for 90 minutes at room temperature. The reactions are terminated by addition of 5 microliters of the ADP-Glo™ Reagent component of the ADP-Glo™ Kinase Assay kit to each well. The ADP-Glo™ Reagent comprises an ATP-dependent adenylate cyclase, an inorganic pyrophosphatase and an excess of staurosporine. The adenylate cyclase converts the remaining ATP to cAMP and pyrophospahte, the pyrophosphatase converts the pyrophosphate to phosphate and the staurosporine inhibits the activity of the FYN kinase, the net effect is to remove all residual ATP while preserving the ADP produced by FYN kinase. The terminated reactions are incubated for 40 minutes at room temperature, prior to addition of the Kinase Detection Reagent component of the ADP-Glo™ Kinase Assay kit to each well. The Kinase Detection Reagent comprises pyruvate kinase, phosphoenol pyruvate (PEP), luciferin and luciferase. The pyruvate kinase converts PEP to pyruvate and in the process generates ATP from the residual ADP present in the terminated reaction. […]

Chain of full-length recombinant human FYN A (P06241 whole entry): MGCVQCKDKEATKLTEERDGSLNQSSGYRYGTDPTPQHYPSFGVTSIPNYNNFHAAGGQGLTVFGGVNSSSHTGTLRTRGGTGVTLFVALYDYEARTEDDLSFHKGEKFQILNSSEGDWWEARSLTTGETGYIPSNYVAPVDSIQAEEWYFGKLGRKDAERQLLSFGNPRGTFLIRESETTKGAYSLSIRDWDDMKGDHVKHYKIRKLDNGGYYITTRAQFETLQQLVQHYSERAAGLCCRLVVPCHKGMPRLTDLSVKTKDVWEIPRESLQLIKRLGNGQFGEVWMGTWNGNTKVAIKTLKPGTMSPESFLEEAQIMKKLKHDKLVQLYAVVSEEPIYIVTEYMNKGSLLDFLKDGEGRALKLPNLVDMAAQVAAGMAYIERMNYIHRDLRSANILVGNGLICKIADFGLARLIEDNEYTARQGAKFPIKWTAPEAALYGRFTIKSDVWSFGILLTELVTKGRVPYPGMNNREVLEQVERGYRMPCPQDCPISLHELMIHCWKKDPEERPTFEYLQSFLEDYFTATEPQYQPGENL

Point of comparison: CC(=O)Nc1cccc(-c2cncc(NCc3ccco3)n2)c1 [035_0144_0081, N-[3-[6-(2-furylmethyl-amino)pyrazin-2-yl]phenyl] acetamide], IC50 11200 nM. Against it:
- Oc1cccc(-c2cncc(NCc3ccoc3)c2)c1 [081_0284_2069, 3-[5-(3-furylmethyl-amino)-3-pyridyl]phenol] — within 1.5-fold, 10900 nM
- OCc1ccc(-c2cnc3ccc(NCc4ccco4)nn23)cc1 [229_0144_0285, [4-[6-(2-furylmethyl-amino)imidazo[1,2-b]pyridazin-3-yl]phenyl] methanol] — 5.1-fold lower, 2200 nM
- OCc1cccc(-c2cnc3ccc(NCc4ccco4)nn23)c1 [229_0144_0291, [3-[6-(2-furylmethyl-amino)imidazo[1,2-b]pyridazin-3-yl]phenyl] methanol] — 2.9-fold lower, 3860 nM
- CC(=O)c1cccc(-c2cnc3ccc(NCc4ccco4)nn23)c1 [229_0144_4145, 1-[3-[6-(2-furylmethyl-amino)imidazo[1,2-b]pyridazin-3-yl]phenyl] ethanone] — 11-fold lower, 997 nM
- NC(=O)c1cccc(-c2cnc3sc(NCC4CC4)nn23)c1 [699_4051_0347, 3-[2-(cyclopropyl-methyl-amino)imidazo [2,1-b][1,3,4]thia-diazol-5-yl]benzamide] — 5.8-fold lower, 1940 nM
- Cc1ccccc1CNc1nn2c(-c3cccc(C(=O)N(C)C)c3)cnc2s1 [699_8074_0349, N,N-dimethyl-3-[2-(o-tolylmethyl-amino)imidazo[2,1-b][1,3,4]thia-diazol-5-yl]benzamide] — 3-fold lower, 3730 nM
- O=CNc1cc(-c2ccc(C(=O)N3CCOCC3)cc2)cn2c(-c3ccc(F)cc3)cnc12 [788_0339_0337, N-[3-(4-fluorophenyl)-6-[4-(morpholine-4-carbonyl)phenyl]imidazo[1,2-a]pyridin-8-yl]formamide] — 3.1-fold lower, 3590 nM
- COc1ccc(-c2cnc3ccc(Cc4ccccc4)nn23)cc1OC [828_0079_6001, 6-benzyl-3-(3,4-dimethoxyphen-yl)imidazo[1,2-b]pyridazine] — 11-fold lower, 974 nM
- NC(=O)c1ccc(-c2cnc3ccc(Cc4ccc(F)cc4)nn23)cc1 [828_0346_6370, 4-[6-[(4-fluorophenyl)methyl]imidazo [1,2-b]pyridazin-3-yl]benzamide] — 8.6-fold lower, 1300 nM
- c1csc(-c2cnc3ccc(-c4ccncc4)nn23)c1 [828_4147_0069, 6-(4-pyridyl)-3-(2-thienyl)imidazo [1,2-b]pyridazine] — 23-fold lower, 497 nM

Same assay, conditions: secondary screen, candidate compounds re-synthesized and expanded

Point of comparison: COc1cc(-c2cnc3ccc(NCc4cccs4)nn23)ccc1O [BF000145954, 2-methoxy-4-[6-(2-thienylmeth-ylamino)imi-dazo[1,2-b]pyridazin-3-yl]phenol], IC50 166 nM. Against it:
- CN(C)C(=O)c1cccc(-c2cnc3sc(NCC4CC4)nn23)c1 [BF000714798, 3-[2-(cyclopropyl-methylamino)imidazo[2,1-b][1,3,4]thia-diazol-5-yl]-N,N-dimethyl-benzamide] — 5.3-fold higher, 884 nM
- CN(C)C(=O)c1cccc(-c2cnc3sc(NCc4ccc5c(c4)OCO5)nn23)c1 [BF000717214, 3-[2-(1,3-benzodioxol-5-ylmethyl-amino)imi-dazo[2,1-b][1,3,4]thia-diazol-5-yl]-N,N-dimethyl-benzamide] — 12-fold higher, 1930 nM
- COc1cc(-c2cnc3ccc(NCc4ccccn4)nn23)ccc1O [BF000817095, 2-methoxy-4-[6-(2-pyridylmeth-ylamino)imi-dazo[1,2-b]pyridazin-3-yl]phenol] — within 1.5-fold, 233 nM

Biological target: Fyn (Mus musculus (Mouse), UniProt P39688)
Sequence (P39688 whole entry): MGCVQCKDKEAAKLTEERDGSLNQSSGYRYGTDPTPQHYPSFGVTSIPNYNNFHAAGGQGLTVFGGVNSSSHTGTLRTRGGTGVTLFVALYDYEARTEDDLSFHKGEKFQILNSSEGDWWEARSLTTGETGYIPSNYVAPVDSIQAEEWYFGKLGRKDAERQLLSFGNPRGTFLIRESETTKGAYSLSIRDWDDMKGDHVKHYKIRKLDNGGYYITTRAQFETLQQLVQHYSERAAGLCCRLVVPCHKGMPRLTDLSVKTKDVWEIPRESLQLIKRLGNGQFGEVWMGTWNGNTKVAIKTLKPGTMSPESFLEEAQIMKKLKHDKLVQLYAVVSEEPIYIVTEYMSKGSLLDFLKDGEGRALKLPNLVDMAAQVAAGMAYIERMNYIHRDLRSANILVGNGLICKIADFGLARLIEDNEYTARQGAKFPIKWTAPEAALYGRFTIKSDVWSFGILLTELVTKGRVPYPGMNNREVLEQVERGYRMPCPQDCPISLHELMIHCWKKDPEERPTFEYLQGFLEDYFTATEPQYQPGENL
Test: not given
Details: Fyn knockout strains; cited from earlier work

In the case of CN(C)S(=O)(=O)c1ccc2c(c1)/C(=C/c1cc3c([nH]1)CCCC3)C(=O)N2 [SU6656], the energy utilization is given as “no increase”.

For CN(C)S(=O)(=O)c1ccc2c(c1)/C(=C/c1cc3c([nH]1)CCCC3)C(=O)N2 [SU6656], the lipid utilization is listed as “no increase”.

Same assay, conditions: treated mice relative to untreated control mice; cited from earlier work

In the case of CN(C)S(=O)(=O)c1ccc2c(c1)/C(=C/c1cc3c([nH]1)CCCC3)C(=O)N2 [SU6656], the fat mass is given as “significantly reduced”.

— patent US11701353B2, “Methods, compositions, and uses of novel FYN kinase inhibitors” (Pathways Neuro Pharma, Inc., priority 2015, dated 2023)
